Patent EP0318860B1, “Substituted alkylamine derivatives” (BANYU PHARMACEUTICAL CO., LTD., priority 1987, dated 1989)
Where a name gives a salt, the structure may show the parent alone.

Biological target: T1, rat squalene epoxidase (Rattus norvegicus, UniProt P52020)
T1 construct: Livers were extracted and homogenized; from tissue; host or cells: liver of SD-strain female rats; microsomes solubilized with 2 % Triton X-100, 105000 x g supernatant
Test: Squalene epoxidase inhibiting activity (3H-squalene to squalene-2,3-epoxide, solubilized liver microsome fraction)
Type: biochemical
Conditions: 8 µM 3H-squalene, 37 °C, 30 minutes, read-out: 50 % inhibitory concentration (IC50)
Method: The rat squalene epoxidase was prepared by the method described in J. Biol. Chem., vol.
SD-strain female rats were killed by exsanguination. Livers were extracted and homogenized with in the presence of 2 volumes of 0.1M Tris-HCl buffer (pH 7.5). The homogenate was centrifuged at 9750 Xg for 10 minutes. The supernatant fraction was further centrifuged at 105000 Xg for 1 hour. The sediment was washed with 0.1M Tris-HCl buffer (pH 7.5), and then centrifuged at 105000 Xg for 1 hour. The microsomes obtained were suspended in 0.1M Tris-HCl buffer (pH 7.5) so that the amount of proteins was 40 mg/ml, and under ice cooling, the suspension was stirred in the presence of 2 % Triton X-100 to solubilize the enzyme. After the solubilization, the solution was diluted to a Triton X-100 concentration of 0.5 % with 1 mM EDTA and 1 mM dithiothreitol, and centrifuged at 105000 Xg for 1 hour. The resulting supernatant fraction was used in the following test as a squalene epoxidase fraction.
The squalene epoxidase activity was assayed in accordance with the method described in J. Biol. Chem., vol.
Three microliters of a dimethyl sulfoxide solution of a test drug was added to a solution composed of 0.2 ml of the squalene epoxidase fraction prepared in (1) [proteins 0.4 mg, 0.5 % Triton X-100, […] Tris-HCl buffer (pH 7.5)], 100 µM FAD, 1 mM NADPH, 1 mM EDTA and 8 µM ³H-squalene-Tween 80 emulsion to adjust the total amount of the solution to 0.3 ml. The solution was incubated at 37 °C for 30 minutes with shaking. Then, 0.3 ml of a 10 % methanolic potassium hydroxide was added to stop the reaction, and the reaction mixture was left to stand at room temperature for 1 hour. The non-saponified material was extracted with petroleum ether, and the solvent was evaporated under a nitrogen stream. […] The position of the resulting ³H-squalene-2,3-epoxide on TLC was determined using ergosterol acetate as a marker, and the ³H-squalene-2,3-epoxide portion on the TLC was cut off. The TLC strip was immersed in a toluene-type scintillator, and measured by a liquid scintillation counter.

T1 sequence (P52020 whole entry): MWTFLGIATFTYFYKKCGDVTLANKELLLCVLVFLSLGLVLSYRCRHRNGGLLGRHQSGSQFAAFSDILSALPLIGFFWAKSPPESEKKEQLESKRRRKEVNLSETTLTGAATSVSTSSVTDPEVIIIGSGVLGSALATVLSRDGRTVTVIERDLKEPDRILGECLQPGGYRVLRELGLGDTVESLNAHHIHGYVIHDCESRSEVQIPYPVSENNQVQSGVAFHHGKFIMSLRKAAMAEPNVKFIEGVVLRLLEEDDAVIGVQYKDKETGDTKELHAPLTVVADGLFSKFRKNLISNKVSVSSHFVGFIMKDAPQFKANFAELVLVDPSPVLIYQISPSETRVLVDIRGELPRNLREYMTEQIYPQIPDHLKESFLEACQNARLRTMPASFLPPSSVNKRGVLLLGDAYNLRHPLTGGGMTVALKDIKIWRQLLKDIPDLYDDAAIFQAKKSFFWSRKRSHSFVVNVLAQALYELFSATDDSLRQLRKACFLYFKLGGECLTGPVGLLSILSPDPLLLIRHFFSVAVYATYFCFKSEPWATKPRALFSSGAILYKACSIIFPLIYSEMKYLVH

Structure (SMILES) | IC50 [nM]
CN(C/C=C/C#CC(C)(C)C)Cc1csc(/C=C/c2ccccc2)n1 [Compound 117, N-[(E)-6,6-dimethyl-2-hepten-4-ynyl]-N-methyl-2-[(E)-styryl]-4-thiazolylmethylamine] | 520
CN(C/C=C/C#CC(C)(C)C)Cc1cccc(OCc2ccccc2F)c1 [Compound 66, (E)-N-(6,6-dimethyl-2-hepten-4-ynyl)-N-methyl-3-(2-fluorobenzyloxy)benzylamine hydrochloride] | 1200
CN(C/C=C/C#CC(C)(C)C)Cc1cccc(OCc2cccc(-n3cccc3)c2)c1 [Compound 81, (E)-N-(6,6-dimethyl-2-hepten-4-ynyl)-N-methyl-3-[3-(1-pyrrolyl)benzyloxy]benzylamine] | 14
CN(C/C=C/C#CC(C)(C)C)Cc1cccc(OCCCc2ccccc2)c1 [Compound 58, (E)-N-(6,6-dimethyl-2-hepten-4-ynyl)-N-methyl-3-(3-phenylpropoxy)benzylamine hydrochloride] | 7900
C#CCN(C/C=C/C#CC(C)(C)C)Cc1cccc(OCc2ccccc2)c1 [Compound 42, (E)-N-(6,6-dimethyl-2-hepten-4-ynyl)-N-propargyl-3-benzyloxybenzylamine] | 9600
CN(C/C=C/C#CC(C)(C)C)Cc1cccc(OCc2cccc(-c3nccs3)c2)c1 [Compound 77, (E)-N-(6,6-dimethyl-2-hepten-4-ynyl)-N-methyl-3-[3-(2-thiazolyl)benzyloxy]benzylamine] | 1200
CC(C)=Cc1cccc(COc2cccc(CN(C)C/C=C/C#CC(C)(C)C)c2)c1 [Compound 70, (E)-N-(6,6-dimethyl-2-hepten-4-ynyl)-N-methyl-3-[3-(2-methyl-1-propenyl)benzyloxy]benzylamine] | 3100
CCN(C/C=C/C#CC(C)(C)C)Cc1cccc(OCc2cccc(-c3cnco3)c2)c1 [Compound 120, (E)-N-(6,6-dimethyl-2-hepten-4-ynyl)-N-ethyl-3-[3-(5-oxazolyl)benzyloxy]benzylamine] | 2.7
CN(C/C=C/C#CC(C)(C)C)Cc1cccc(CNc2ccccc2)c1 [Compound 104, (E)-N-[6,6-dimethyl-2-hepten-4-ynyl]-N-methyl-3-anilinomethylbenzylamine hydrochloride] | 7700
CN(C/C=C/C#CC(C)(C)C)Cc1cccc(OCc2cccc3cccnc23)c1 [Compound 87, (E)-N-(6,6-dimethyl-2-hepten-4-ynyl)-N-methyl-3-(8-quinolylmethyloxy)benzylamine hydrochloride] | 3500
CN(C/C=C/C#CC(C)(C)C)Cc1cccc(/C=C/c2cccc3ccccc23)c1 [Compound 100, N-[(E)-6,6-dimethyl-2-hepten-4-ynyl]-N-methyl-3-[(E)-2-(1-naphthylvinyl)]benzylamine] | 120
CN(C/C=C/C#CC(C)(C)C)Cc1cccc(OCc2cccs2)c1 [Compound 86, (E)-N-(6,6-dimethyl-2-hepten-4-ynyl)-N-methyl-3-(2-thienylmethyloxy)benzylamine] | 3300
COC(C)(C)C#C/C=C/CN(C)Cc1cccc(OCc2ccccc2)c1 [Compound 126, (E)-N-(6-methoxy-6-methyl-2-hepten-4-ynyl)-N-methyl-3-benzyloxybenzylamine] | 2200
CN(C/C=C/C#CC(C)(C)C)Cc1cccc(OCc2ccccc2Cl)c1 [Compound 56, (E)-N-(6,6-dimethyl-2-hepten-4-ynyl)-N-methyl-3-(2-chlorobenzyloxy)benzylamine] | 2100
Cc1ccc(COc2cccc(CN(C)C/C=C/C#CC(C)(C)C)c2)cc1 [Compound 54, (E)-N-(6,6-dimethyl-2-hepten-4-ynyl)-N-methyl-3-(4-methylbenzyloxy)benzylamine] | 1800
CCN(C/C=C/C#CC(C)(C)C)Cc1cccc(OCc2cccc(-c3cncs3)c2)c1 [Compound 121, (E)-N-(6,6-dimethyl-2-hepten-4-ynyl)-N-ethyl-3-[3-(5-thiazolyl)benzyloxy]benzylamine] | 26
Cc1occc1COc1cccc(CN(C)C/C=C/C#CC(C)(C)C)c1 [Compound 83, (E)-N-(6,6-dimethyl-2-hepten-4-ynyl)-N-methyl-3-[(2-methyl-3-furyl)methyloxy]benzylamine] | 1900
CCCN(C/C=C/C#CC(C)(C)C)Cc1cccc(OCc2cccc(-n3cccc3)c2)c1 [Compound 122, (E)-N-(6,6-dimethyl-2-hepten-4-ynyl)-N-propyl-3-[3-(1-pyrrolyl)benzyloxy]benzylamine] | 13

Structure (SMILES) | IC50 [nM]
CN(C/C=C/C#CC(C)(C)C)Cc1ccc(O)c(OCc2ccccc2)c1 [Compound 50, (E)-N-(6,6-dimethyl-2-hepten-4-ynyl)-N-methyl-3-benzyloxy-4-hydroxybenzylamine hydrochloride] | 2100
CN(C/C=C/C#CC(C)(C)C)Cc1ccc(/C=C/c2ccccc2)o1 [Compound 115, N-[(E)-6,6-dimethyl-2-hepten-4-ynyl]-N-methyl-5-[(E)-styryl]furfurylamine] | 270
CN(C/C=C/C#CC(C)(C)C)Cc1cccc(OCc2cccc(C=O)c2)c1 [Compound 95, (E)-N-(6,6-dimethyl-2-hepten-4-ynyl)-N-methyl-3-(3-formylbenzyloxy)benzylamine] | 6800
CCc1ccccc1COc1cccc(CN(C)C/C=C/C#CC(C)(C)C)c1 [Compound 62, (E)-N-(6,6-dimethyl-2-hepten-4-ynyl)-N-methyl-3-(2-ethylbenzyloxy)benzylamine hydrochloride] | 360
CC(C)=CCOc1cccc(COc2cccc(CN(C)C/C=C/C#CC(C)(C)C)c2)c1 [Compound 73, (E)-N-(6,6-dimethyl-2-hepten-4-ynyl)-N-methyl-3-[3-(3-methyl-2-butenyloxy)benzyloxy]benzylamine] | 2300
CN(C/C=C/C#CC(C)(C)C)Cc1cccc(/C=C/c2ccccn2)c1 [Compound 108, (E)-N-(6,6-dimethyl-2-hepten-4-ynyl)-N-methyl-3-[(E)-2-(2-pyridyl)vinyl]benzylamine] | 450
COc1cccc(COc2cccc(CN(C)C/C=C/C#CC(C)(C)C)c2)c1 [Compound 52, (E)-N-(6,6-dimethyl-2-hepten-4-ynyl)-N-methyl-3-(3-methoxybenzyloxy)benzylamine hydrochloride] | 1400
Cc1ccoc1COc1cccc(CN(C)C/C=C/C#CC(C)(C)C)c1 [Compound 82, (E)-N-(6,6-dimethyl-2-hepten-4-ynyl)-N-methyl-[(3-methyl-2-furyl)methyloxy]benzylamine] | 870
CN(C/C=C/C#CC(C)(C)C)Cc1cccc(OCc2ccc(F)cc2)c1 [Compound 10, (E)-N-(6,6-dimethyl-2-hepten-4-ynyl)-N-methyl-3-(4-fluorobenzyloxy)benzylamine] | 4700
CN(C/C=C/C#CC(C)(C)C)Cc1cccc(NCc2ccccc2)c1 [Compound 102, (E)-N-(6,6-dimethyl-2-hepten-4-ynyl)-N-methyl-3-benzylaminobenzylamine] | 2100
CN(C/C=C/C#CC(C)(C)C)Cc1cccc(OCc2cccc(CO)c2)c1 [Compound 96, (E)-N-(6,6-dimethyl-2-hepten-4-ynyl)-N-methyl-3-(3-hydroxymethylbenzyloxy)benzylamine] | 840
CN(C/C=C\C#CC(C)(C)C)Cc1cccc(OCc2cccc3ccccc23)c1 [Compound 19, (Z)-N-(6,6-dimethyl-2-hepten-4-ynyl)-N-methyl-3-(1-naphthylmethyloxy)benzylamine] | 3100
Cc1ccccc1COc1cccc(CN(C)C/C=C/C=C/C(C)(C)C)c1 [Compound 132, (E),(E)-N-(6,6-dimethyl-2,4-heptadienyl)-N-methyl-3-(2-methylbenzyloxy)benzylamine] | 5400
Cc1cccc(COc2cccc(CN(C)C/C=C/C#CC(C)(C)C)c2)c1C [Compound 55, (E)-N-(6,6-dimethyl-2-hepten-4-ynyl)-N-methyl-3-(2,3-dimethylbenzyloxy)benzylamine hydrochloride] | 600
CN(C/C=C/C#CC(C)(C)C)Cc1cccc(OCc2ccco2)c1 [Compound 34, (E)-N-(6,6-dimethyl-2-hepten-4-ynyl)-N-methyl-3-furfuryloxybenzylamine] | 1700
CN(C/C=C/C#CC(C)(C)C)Cc1cccc(OCc2cccc(-c3ccco3)c2)c1 [Compound 75, (E)-N-(6,6-dimethyl-2-hepten-4-ynyl)-N-methyl-3-[3-(2-furyl)benzyloxy]benzylamine hydrochloride] | 140
CN(C/C=C/C#CC(C)(C)C)Cc1cccc(OCc2cccc(C(F)(F)F)c2)c1 [Compound 57, (E)-N-(6,6-dimethyl-2-hepten-4-ynyl)-N-methyl-3-(3-trifluoromethylbenzyloxy)benzylamine hydrochloride] | 3100
